Test results from ChEMBL document CHEMBL1201862, “PubChem BioAssay data set” (2004).
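Values below derive from 48-hour exposures of cells grown in 96-well plates, with endpoints linearly interpolated between the two concentrations bracketing the appropriate inhibition level. GI50: concentration for 50% inhibition of growth.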 Activity calls are given as the source filed them. No stated cut-off is given here; in the data, active = GI50 up to about 1.1 µM and inactive = higher. Numbered stars: 1 amine (or outer) side, 2 acyl side, 3 side chain; on linkers, the order of the positions; unused ones are H or OH. Square brackets hold non-standard residues; d marks the D form. Peptide text beside a SMILES is read from it. X55 = CC[C@H](C)[C@H](OC(=O)[C@@H](C)[C@@H](CC)N[*:1])C(=O)[*:2]; X31 = C[C@H](N[*:1])C(=O)C(C)(C)C(=O)[*:2]; NMeY = CN[C@@H](Cc1ccc(O)cc1)C(=O)O; NMeL = CN[C@@H](CC(C)C)C(=O)O; NMeV = CN[C@H](C(=O)O)C(C)C

Experiments:
Experiment in all cases: NCI-60 cell line screen, 48 h
[1] = test system: 786-0
[2] = test system: A498
[3] = test system: A549
[4] = test system: ACHN
[5] = test system: BT-549
[6] = test system: CAKI-1
[7] = test system: CCRF-CEM
[8] = test system: DLD-1
[9] = test system: DMS-114
[10] = test system: DMS-273
[11] = test system: DU-145
[12] = test system: EKVX
[13] = test system: HCC 2998
[14] = test system: HCT-116
[15] = test system: HCT-15
[16] = test system: HL-60
[17] = test system: HOP-18
[18] = test system: HOP-62
[19] = test system: HOP-92
[20] = test system: HT-29
[21] = test system: Hs-578T
[22] = test system: IGROV-1
[23] = test system: K562
[24] = test system: KM-20L2
[25] = test system: KM12
[26] = test system: LOX IMVI
[27] = test system: LXFL 529
[28] = test system: M14
[29] = test system: M19-MEL
[30] = test system: MCF7
[31] = test system: MDA-MB-231
[32] = test system: MDA-MB-435
[33] = test system: MDA-N
[34] = test system: MOLT-4
[35] = test system: Malme-3M
[36] = test system: NCI-H226
[37] = test system: NCI-H23
[38] = test system: NCI-H460
[39] = test system: NCI-H522
[40] = test system: NCI/ADR-RES
[41] = test system: OVCAR-3
[42] = test system: OVCAR-4
[43] = test system: OVCAR-5
[44] = test system: OVCAR-8
[45] = test system: PC-3
[46] = test system: RPMI-8226
[47] = test system: RXF 393
[48] = test system: SF-268
[49] = test system: SF-295
[50] = test system: SF-539
[51] = test system: SK-MEL-2
[52] = test system: SK-MEL-5
[53] = test system: SK-OV-3
[54] = test system: SN12C
[55] = test system: SNB-19
[56] = test system: SNB-75
[57] = test system: SNB-78
[58] = test system: SR
[59] = test system: SW-620
[60] = test system: T47D
[61] = test system: TK-10
[62] = test system: U-251
[63] = test system: UACC-257
[64] = test system: UACC-62
[65] = test system: UO-31
[66] = test system: XF498
[67] = test system: COLO 205
[68] = test system: RXF 631
[69] = test system: SK-MEL-28

`CC[C@H](C)[C@@H]1OC(=O)[C@@H](C)[C@@H](CC)NC(=O)[C@H](C)NC(=O)C(C)(C)C(=O)[C@H](C)NC(=O)[C@H](Cc2ccc(OC)cc2)N(C)C(=O)[C@H](C(C)C)N(C)C(=O)CNC(=O)[C@H](CC(C)C)N(C)C(=O)CNC1=O` [DOLASTATIN 11] (cyclo(A[X55]G[NMeL]G[NMeV][NMeY](Me)[X31])) was tested, and the GI50 [1] was 0.0304 µM (active), the GI50 [2] was 0.118 µM (active) and the GI50 [3] was 0.0175 µM (active). For the same compound, the GI50 [4] was 0.0327 µM (active), the GI50 [5] was 0.091 µM (active) and the GI50 [6] was 0.034 µM (active). For the same compound, the GI50 [7] was 0.0274 µM (active), the GI50 [8] was < 0.0361 µM (active) and the GI50 [9] was < 0.0203 µM (active). The GI50 [10] was 0.01 µM (active), the GI50 [11] was 0.118 µM (active) and the GI50 [12] was 0.102 µM (active). For the same compound, the GI50 [13] was 0.0188 µM (active), the GI50 [14] was 0.154 µM (active) and the GI50 [15] was 0.67 µM. The GI50 [16] was 0.0117 µM (active), the GI50 [17] was < 0.0118 µM (active) and the GI50 [18] was 0.0497 µM (active). For the same compound, the GI50 [19] was 0.0752 µM (active), the GI50 [20] was 0.0264 µM (active) and the GI50 [21] was 0.258 µM (active). For the same compound, the GI50 [22] was 0.0355 µM (active), the GI50 [23] was 0.0885 µM (active) and the GI50 [24] was < 0.0197 µM (active). The GI50 [25] was 0.4 µM (active), the GI50 [26] was 0.01 µM (active) and the GI50 [27] was < 0.0166 µM (active). For the same compound, the GI50 [28] was < 0.0148 µM (active), the GI50 [29] was 0.344 µM (active) and the GI50 [30] was 0.0592 µM (active). For the same compound, the GI50 [31] was 0.0632 µM (active), the GI50 [32] was 0.0603 µM (active) and the GI50 [33] was 0.0855 µM (active). The GI50 [34] was 0.543 µM (active), the GI50 [35] was 0.13 µM (active) and the GI50 [36] was 0.137 µM (active). The GI50 [37] was 0.071 µM (active), the GI50 [38] was 0.00115 µM (active) and the GI50 [39] was 0.00607 µM (active). For the same compound, the GI50 [40] was 0.802 µM (active), the GI50 [41] was 0.0413 µM (active) and the GI50 [42] was 0.0507 µM (active). The GI50 [43] was 0.9 µM (active), the GI50 [44] was 0.101 µM (active) and the GI50 [45] was 0.0849 µM (active). For the same compound, the GI50 [46] was 0.115 µM (active), the GI50 [47] was 0.0223 µM (active) and the GI50 [48] was 0.082 µM (active). The GI50 [49] was 0.0838 µM (active), the GI50 [50] was 0.0122 µM (active) and the GI50 [51] was 0.0787 µM (active). For the same compound, the GI50 [52] was 0.0247 µM (active), the GI50 [53] was 0.229 µM (active) and the GI50 [54] was 0.194 µM (active). For the same compound, the GI50 [55] was 0.185 µM (active), the GI50 [56] was 0.0847 µM (active) and the GI50 [57] was 0.0514 µM (active). For the same compound, the GI50 [58] was 0.0355 µM (active), the GI50 [59] was 0.286 µM (active) and the GI50 [60] was 0.448 µM (active). The GI50 [61] was 0.0713 µM (active), the GI50 [62] was 0.0158 µM (active) and the GI50 [63] was 0.0817 µM (active). For the same compound, the GI50 [64] was 0.0893 µM (active), the GI50 [65] was 0.169 µM (active) and the GI50 [66] was 0.0248 µM (active).
In the case of `O=C1C=CC(=CC=C2C=CN(CCCCCCCCCCC(=O)NCCCCCCCCCCCC(=O)O)C=C2)C=C1`, the GI50 [1] is reported as > 100 µM (inactive), the GI50 [2] is reported as > 100 µM (inactive) and the GI50 [3] is reported as > 100 µM (inactive). For the same compound, the GI50 [4] was > 100 µM (inactive), the GI50 [6] was > 100 µM (inactive) and the GI50 [7] was > 100 µM (inactive). For the same compound, the GI50 [67] was > 100 µM (inactive), the GI50 [8] was > 100 µM (inactive) and the GI50 [9] was > 100 µM (inactive). The GI50 [10] was > 100 µM (inactive), the GI50 [12] was > 100 µM (inactive) and the GI50 [13] was > 100 µM (inactive). For the same compound, the GI50 [14] was > 100 µM (inactive), the GI50 [15] was > 100 µM and the GI50 [16] was > 100 µM (inactive). For the same compound, the GI50 [18] was > 100 µM (inactive), the GI50 [19] was > 100 µM (inactive) and the GI50 [20] was > 100 µM (inactive). For the same compound, the GI50 [22] was > 100 µM (inactive), the GI50 [23] was > 100 µM (inactive) and the GI50 [24] was > 100 µM (inactive). For the same compound, the GI50 [25] was > 100 µM (inactive), the GI50 [26] was > 100 µM (inactive) and the GI50 [27] was > 100 µM (inactive). For the same compound, the GI50 [28] was > 100 µM (inactive), the GI50 [29] was > 100 µM (inactive) and the GI50 [34] was > 100 µM (inactive). The GI50 [35] was > 100 µM (inactive), the GI50 [36] was > 100 µM (inactive) and the GI50 [37] was > 100 µM (inactive). For the same compound, the GI50 [38] was > 100 µM (inactive), the GI50 [39] was > 100 µM (inactive) and the GI50 [41] was > 100 µM (inactive). For the same compound, the GI50 [42] was > 100 µM (inactive), the GI50 [43] was > 100 µM (inactive) and the GI50 [44] was > 100 µM (inactive). For the same compound, the GI50 [46] was > 100 µM (inactive), the GI50 [47] was > 100 µM (inactive) and the GI50 [68] was > 100 µM (inactive). The GI50 [48] was > 100 µM (inactive), the GI50 [49] was > 100 µM (inactive) and the GI50 [50] was > 100 µM (inactive). The GI50 [69] was > 100 µM (inactive), the GI50 [52] was > 100 µM (inactive) and the GI50 [53] was > 100 µM (inactive). The GI50 [54] was > 100 µM (inactive), the GI50 [55] was > 100 µM (inactive) and the GI50 [56] was > 100 µM (inactive). For the same compound, the GI50 [57] was > 100 µM (inactive), the GI50 [58] was > 100 µM (inactive) and the GI50 [59] was > 100 µM (inactive). For the same compound, the GI50 [61] was > 100 µM (inactive), the GI50 [62] was > 100 µM (inactive) and the GI50 [63] was > 100 µM (inactive). For the same compound, the GI50 [64] was > 100 µM (inactive), the GI50 [65] was > 100 µM (inactive) and the GI50 [66] was > 100 µM (inactive).
With `C#Cc1cc(CN(CC(=O)OC(C)(C)C)CC(=O)OC(C)(C)C)nc(CN(CC(=O)OC(C)(C)C)CC(=O)OC(C)(C)C)c1` the GI50 [1] was 7.06 µM (inactive), the GI50 [2] was 17.8 µM (inactive) and the GI50 [3] was 7.85 µM (inactive). The GI50 [4] was 4.84 µM (inactive), the GI50 [6] was 10 µM (inactive) and the GI50 [7] was 2.96 µM (inactive). The GI50 [67] was 7.36 µM (inactive), the GI50 [9] was 3.26 µM (inactive) and the GI50 [10] was 5.89 µM (inactive). For the same compound, the GI50 [12] was 11.9 µM (inactive), the GI50 [13] was 4.31 µM (inactive) and the GI50 [15] was 24.6 µM. The GI50 [16] was 2.98 µM (inactive), the GI50 [18] was 3.92 µM (inactive) and the GI50 [20] was 4.4 µM (inactive). For the same compound, the GI50 [22] was 7.66 µM (inactive), the GI50 [23] was 4.6 µM (inactive) and the GI50 [24] was 5.43 µM (inactive). For the same compound, the GI50 [25] was 3.72 µM (inactive), the GI50 [26] was 2.37 µM (inactive) and the GI50 [27] was 3.46 µM (inactive). For the same compound, the GI50 [28] was 5.89 µM (inactive), the GI50 [29] was 6.4 µM (inactive) and the GI50 [34] was 2.62 µM (inactive). For the same compound, the GI50 [35] was 4.17 µM (inactive), the GI50 [36] was 0.498 µM (active) and the GI50 [37] was 4.74 µM (inactive). For the same compound, the GI50 [38] was 7.23 µM (inactive), the GI50 [39] was 2.01 µM (inactive) and the GI50 [41] was 3.04 µM (inactive). The GI50 [42] was 6.19 µM (inactive), the GI50 [43] was 21.6 µM (inactive) and the GI50 [44] was 5.24 µM (inactive). For the same compound, the GI50 [46] was 2.75 µM (inactive), the GI50 [47] was 2.84 µM (inactive) and the GI50 [68] was 11.9 µM (inactive). The GI50 [48] was 4.8 µM (inactive), the GI50 [49] was 4.39 µM (inactive) and the GI50 [50] was 15.2 µM (inactive). For the same compound, the GI50 [69] was 7.5 µM (inactive), the GI50 [51] was 2.28 µM (inactive) and the GI50 [52] was 3.59 µM (inactive). The GI50 [53] was 6.55 µM (inactive), the GI50 [54] was 6.75 µM (inactive) and the GI50 [55] was 2.74 µM (inactive). For the same compound, the GI50 [56] was 11.6 µM (inactive), the GI50 [57] was 6.14 µM (inactive) and the GI50 [59] was 4.81 µM (inactive). For the same compound, the GI50 [61] was 17.3 µM (inactive), the GI50 [62] was 5.07 µM (inactive) and the GI50 [63] was 2.82 µM (inactive). For the same compound, the GI50 [64] was 4.26 µM (inactive), the GI50 [65] was 3.71 µM (inactive) and the GI50 [66] was 11.6 µM (inactive).
